Assay results reported in PubChem BioAssay AID330 (DTP/NCI, 2004).
“And” between values parts separate entries of the source, which are not always exact repeats. Equal entries are not always repeated. Toxic doses and inconclusive results are not listed. Rule for the calls: active = survival T/C of 150% or more; inactive = T/C below 125% in these data.

Tested on: P388 leukemia ip, CD2F1 mice, survival T/C
Assay: NCI In Vivo Anticancer Drug Screen. Data for tumor model P388 Leukemia (intraperitoneal) in CD2F1 (CDF1) mice
Settings: endpoint: median survival time, higher = longer survival
Procedure, shortened: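 Mice carrying the transplanted tumor received test compound or vehicle. Survival was recorded in each group, and the value is the treated-group measurement divided by that of the vehicle-treated control group.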

Measured: T/C

C[Se](=C(C(=O)c1ccccc1)C(=O)c1ccccc1)c1ccccc1 (centres undefined)
inactive: dose: 100.0 mg/kg/injection, schedule: Q04DX002 (ip), vehicle: saline 99 % of control | dose: 200.0 mg/kg/injection, schedule: Q04DX002 (ip), vehicle: saline 100 % of control | dose: 400.0 mg/kg/injection, schedule: Q04DX002 (ip), vehicle: saline 98 % of control

O=C(O)CC1OCC=C2CN3CCC45c6ccccc6NC4C1C2CC35 (centres undefined)
inactive: dose: 0.93 mg/kg/injection, schedule: Q01DX005 (ip), vehicle: Klucel (hydroxypropylcellulose) (HPC) 100 % of control | dose: 1.87 mg/kg/injection, schedule: Q01DX005 (ip), vehicle: Klucel (hydroxypropylcellulose) (HPC) 98 % of control | dose: 7.5 mg/kg/injection, schedule: Q01DX005 (ip), vehicle: saline with Tween-80 100 % of control | dose: 15.0 mg/kg/injection, schedule: Q01DX005 (ip), vehicle: saline with Tween-80 100 % of control | dose: 30.0 mg/kg/injection, schedule: Q01DX005 (ip), vehicle: saline with Tween-80 100 % of control

C=C(C)C(=O)OC1CCC2(C)C(CCC3C2CCC2(C)C(c4ccc(=O)oc4)CCC32O)C1 (centres undefined)
inactive: dose: 12.5 mg/kg/injection, schedule: Q01DX009 (ip), vehicle: saline 86 % of control | dose: 25.0 mg/kg/injection, schedule: Q01DX009 (ip), vehicle: saline 98 % of control | dose: 50.0 mg/kg/injection, schedule: Q01DX009 (ip), vehicle: saline 101 % of control and 94 % of control | dose: 200.0 mg/kg/injection, schedule: Q01DX009 (ip), vehicle: saline 95 % of control

CCC(c1ccc(OC)cc1)C(NCC(=O)N/N=C/c1c[nH]c2ccccc12)c1ccc(OC)cc1 (centres undefined)
inactive: dose: 100.0 mg/kg/injection, schedule: Q01DX001 (ip), vehicle: saline with Tween-80 94 % of control | dose: 200.0 mg/kg/injection, schedule: Q01DX001 (ip), vehicle: saline with Tween-80 87 % of control
